Legend:
[1] = Imazethapyr content in soil in laboratory experiment (Example 2, HPLC); settings: end of experiment (47 days), original contaminated soil 6.17
Experimental: (§1) The soil in the experiment was artificially polluted with the herbicide preparation “Viaduk VK” (Active substance: imazethapyr, 100 g/L), introducing the drug with water for irrigation at a dosage, according to the instructions, to a final concentration of imazethapyr 10 mg/kg of soil. The soil was moistened to 50% of the total moisture capacity. Seeds of soft wheat (Triticum aestivum L.) varieties “Favorite” 20 pcs. were sown in 1-liter pots containing 1 kg of soil. […]
(§2) The experiment was carried out under controlled conditions: at a temperature of 24/20° C., a light regime of 14/10 h (illumination—8000 lux), day/night, respectively, maintaining soil moisture at a level of 50% of the total moisture capacity by irrigation with settled tap water, the need for which was determined by weighing vessels. […] They were dried with filter paper, the length of roots and shoots was measured, they were separated and dried to constant weight at 65° C. […] The content of imazethapyr in soil was determined as described previously (Assalin M. R., Queiroz S. C. N., Ferracini V. L., Oliveira T., Vilhena E., Mattos M. L. T. A method for determination of imazapic and imazethapyr residues in soil using an ultrasonic assisted extraction and LC-MS/MS//Bull. Environ. Contam. Toxicol.—2014.—Vol. 93.—P. 360-364) using HPLC. […]

[2] = tested on: soft wheat (Triticum aestivum L.) variety Favorite; test: Growth of soft wheat in soil artificially contaminated with imazethapyr (Example 2); type: in vivo; settings: imazethapyr 10 mg/kg soil (Viaduk VK), without bacterization, 25 days
Experimental: as §1, §2

## CCc1cnc(C2=NC(C)(C(C)C)C(=O)N2)c(C(=O)O)c1 (stereo not drawn) [imazethapyr]
[1]; soil with wheat
  Imazethapyr content: 5.90 mg/kg
[1]; soil without plants
  Imazethapyr content: 5.87 mg/kg
[2]
  growth of wheat plants in freshly contaminated soil: strong inhibition
